Data reported in patent US20240165423A1, “METHODS, SYSTEMS AND DEVICES FOR MODULATING CENTRAL NERVOUS SYSTEM INFLAMMATION AND POST-OPERATIVE PAIN” (Arizona Board of Regents on Behalf of the University of …, priority 2021, published 2024).

Tested on: elderly Sprague-Dawley rats with paw incision surgery
Details: males and females; morphine 1 or 5 mg/kg s.c. 24 h after surgery

Q: For `CN1CC[C@]23c4c5ccc(O)c4O[C@H]2[C@@H](O)C=C[C@H]3[C@H]1C5.O=S(=O)(O)O` [morphine, morphine sulfate], which “paw withdrawal thresholds of morphine-injected animals compared with saline-injected counterparts” value is on record?
A: Its value is “higher than that of their saline-injected counterparts at up to 1.5 hours post-injection”.
